Measurements reported in BindingDB's records for doi:10.7270/Q2J101NV (Burnham Center For Chemical Genomics, 2010).

target: T1, Alkaline phosphatase, tissue-nonspecific isozyme (Homo sapiens, UniProt P05186); test: TNAP enzyme activators, dose response, selectivity assay for mouse IAP activator project, biochemical, TNAP isozyme, mouse IAP uHTS hits (AID 488880)
T1 sequence (P05186 whole entry): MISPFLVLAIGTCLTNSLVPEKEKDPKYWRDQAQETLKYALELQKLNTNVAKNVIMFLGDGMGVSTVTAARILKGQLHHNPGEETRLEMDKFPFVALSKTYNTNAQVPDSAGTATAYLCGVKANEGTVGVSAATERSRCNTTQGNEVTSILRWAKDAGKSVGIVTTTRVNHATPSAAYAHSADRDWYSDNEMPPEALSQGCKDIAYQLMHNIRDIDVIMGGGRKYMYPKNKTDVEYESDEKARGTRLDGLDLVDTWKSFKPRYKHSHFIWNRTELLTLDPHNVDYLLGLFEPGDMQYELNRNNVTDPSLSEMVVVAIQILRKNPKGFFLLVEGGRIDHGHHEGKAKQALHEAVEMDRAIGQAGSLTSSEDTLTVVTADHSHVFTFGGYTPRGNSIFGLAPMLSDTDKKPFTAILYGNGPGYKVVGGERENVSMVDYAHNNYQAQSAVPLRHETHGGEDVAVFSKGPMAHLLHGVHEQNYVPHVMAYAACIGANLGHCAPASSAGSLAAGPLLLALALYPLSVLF

Structure (SMILES) | EC50 [µM]
O=C1CC(=O)c2c(O)cc(O)c(O)c2C1=O [4,5,7,8-tetrahydroxy-1,2-naphthoquinone] | > 100
O=C(NN=CC1=CC(=O)C(=O)CC1)NN=CC1=CC(=O)C(=O)CC1 [1,3-bis[[(Z)-(3-hydroxy-4-oxocyclohexa-2,5-dien-1-ylidene)methyl]amino]urea] | 79.4
C#CCOCCOCCOCCNc1nc(N2CCN(C(=O)CCCCCCCCCCNC(=O)[C@@H](CCC(=O)O)n3cc(CCCCCN)nn3)CC2)nc(N2CCN(C(=O)CCCCCCCCCCNC(=O)[C@H]([C@@H](C)CC)n3cc(CCCCCN)nn3)CC2)n1 [KI-KE] | > 100

These reach a lower EC50. Values come first.

EC50 [µM] | Structure (SMILES)
56.1 | Cc1cc(=O)[nH]c(N=NCc2ccc(O)c(O)c2)n1 [MLS001194906]
19.7 | CN(CCO)c1ccc(CN=Nc2ccc([N+](=O)[O-])cc2S(=O)(=O)Nc2ccccc2C(=O)O)cc1
